# Laboratory results published in paper PMC11747041, “Study of an arginine- and tryptophan-rich antimicrobial peptide in peri-implantitis” (Frontiers in Bioengineering and Biotechnology, 2025).
# No end group written: not given here.
# Experiments:
# [1] = test system: Fusobacterium nucleatum (ATCC 25586); format: cell-based; conditions: ATCC 25586, 48 h
# Method: (§1) Streptococcus gordonii (ATCC 10558) is a facultative anaerobic bacterium, Fusobacterium nucleatum (ATCC 25586) and Porphyromonas gingivalis (BNCC 353909) are obligate anaerobic bacteria. The effectiveness of VR-12 in suppressing bacterial proliferation was assessed using the standard broth dilution method ([Tang et al., 2022]). Various concentrations of VR-12 (1,000–7.8 μg/mL, serial two-fold dilution) were mixed with liquid medium broth containing bacteria (1 × 10^6 CFU/mL) at a ratio of 1:1, with an overall volume of 200 µL. A blank control was established using a 200 µL PBS solution, whereas a negative control was prepared by combining 100 µL PBS solution with 100 µL of bacterial culture (1 × 10^6 CFU/mL). The bacterial cultures were incubated in liquid medium for 24/48 h at 37°C, with daily observation of the bacterial sediment accumulation at the base of the well. MIC refers to the minimal concentration of peptide that induces a clear liquid and no visible bacterial growth in the well. The bacterial suspension in the well with a concentration greater than the MIC was pipetted evenly and 10 µL of the liquid was extracted from the well and transferred to agar plates and incubated for 24/48 h for MBC determination.
# [2] = test system: Porphyromonas gingivalis (BNCC 353909); format: cell-based; conditions: 48 h
# Method: as §1
# [3] = test system: Streptococcus gordonii (ATCC 10558); format: cell-based; conditions: ATCC 10558, 48 h
# Method: as §1
# RAW264.7 cells [4] = assay: Live/dead assay (calcein AM/PI); format: cell-based, murine; conditions: RAW264.7, 62.5 μg/mL, 24 h, vs untreated cells
# Method: (§2) A total of 5 × 10^4 cells per well were inoculated into 24-well plates. After 24 h, the cells were exposed to two different types of culture medium: regular medium and medium supplemented with VR-12 (62.5 μg/mL). Following a 24-hour incubation period, the cells were incubated with 200 µL of fresh medium containing calcein AM solution and propidium iodide (PI; Beyotime, Shanghai, China) solution, protected from light for 20 min at room temperature. The observations were conducted using inverted fluorescence microscopy (IX71, Olympus, Japan) and images were captured for documentation purposes.
# HGFs = assay: Live/dead assay (calcein AM/PI); format: cell-based, human; conditions: 62.5 μg/mL, 24 h, vs untreated cells
# Method: as §2
# RAW264.7 cells [5] = assay: Cell proliferation, CCK-8 assay; format: cell-based, murine; conditions: RAW264.7, 125 μg/mL, CCK-8, OD450
# Method: RAW264.7 cells (murine macrophage cell line, ATCC, Manassas, VA, United States) and HGFs (ATCC, Manassas, VA, United States) were cultured (37°C, sterile atmosphere of 5% CO2) in DMEM (Gibco, United States) containing 10% (v/v) fetal bovine serum (FBS, Solarbio Co., Ltd., Beijing, China) and 1% penicillin/streptomycin (Gibco, Carlsbad, CA).
# We assessed cell growth using the Cell Counting Kit-8 (CCK-8) assay ([Chen et al., 2022]). Cells (1,000 cells/well) were seeded in a 96-well plate. After 24 h, the cells were treated with VR-12 (7.81–125 μg/mL, serial two-fold dilution) for 1, 3, 5, and 7 days. The wells without VR-12 were used as blank controls. Cells were incubated using the CCK-8 kit (New Cell&Molecular Biotech Co., Ltd., Suzhou, China), and the absorbance was measured at OD450.
# rat red blood cells = conditions: 125 μg/mL (maximum concentration examined), rat erythrocytes 5% (v/v) suspension, 37°C, 1.5 h, OD540, 1% Triton X-100 positive control
# Method: Initially, the cells underwent three washing cycles with PBS, followed by centrifugation at 1,000 rpm for 10 min at ambient temperature. After removing the supernatant, a suspension of cells at a concentration of 5% (v/v) was prepared using 0.9% NaCl solution (w/v). Subsequently, 100 μL of peptides at varying concentrations (7.81–125 μg/mL, serial two-fold dilution) were combined with 100 μL of the red blood cell suspensions. The mixture underwent incubation at 37°C for a duration of 1.5 h, after which it was subjected to centrifugation at 1,000 rpm for 5 min, and measurement of absorbance at OD540.1% Triton X-100 and NaCl (0.9%) were used as positive and negative controls, respectively. The hemolysis rate (HR) was determined by employing this formula: HR%=ODt−ODn/ODp−ODn×100% where ODp, ODn and ODt were the absorbance values of the positive control group, the negative control group and the test group, respectively.
substance,measurement,setting,value
VRLWVRVRRWRR-NH2 [VR-12],MBC,[1],125 µg/mL
same,MIC,[1],62.5 µg/mL
same,MBC,[2],125 µg/mL
same,MIC,[2],62.5 µg/mL
same,MBC,[3],62.5 µg/mL
same,MIC,[3],31.25 µg/mL
same,Cell viability by live/dead staining,RAW264.7 cells [4],no significant difference in cell viability
same,Cell viability by live/dead staining,HGFs,no significant difference in cell viability
same,α-helix + β-sheet proportion,,31.5%
same,Inhibition rate,RAW264.7 cells [5],approximately 50%
same,Hemolysis rate,rat red blood cells,3.27%
